Measured values reported in PMC3828334, “Tumor Cell Death Mediated by Peptides That Recognize Branched Intermediates of DNA Replication and Repair” (PLoS ONE, 2013).
pIC50: −log10 of the molar value. Values joined by “and” are separate entries in the source; they are usually repeats but may differ in a detail not shown here. Identical values can stand only once. Positions of bridges follow the written chain, without caps; N, C: chain ends. Non-standard residues stand in square brackets, D forms with d. Residues, ends and D or L forms follow the SMILES beside them. Chains are numbered I, II in the order given.

Experiments:
LnCAP cells = format: cell-based; conditions: 48 h
HeLa cells = experiment: Live/Dead assay by flow cytometry, HeLa; format: cell-based; conditions: ± standard error, at least 4 replicates
Protocol: PC3 or HeLa cells were seeded at 400,000 or 500,000 cells per well respectively in 6-well tissue culture plates (BD Falcon) and allowed to attach overnight at 37°C with 5% CO2. The cells were incubated with different concentrations of d-wrwycr for 24 or 48 h respectively before the cells were lifted off from the plate. Cell pellets were resuspended in 200 µl of dye solution containing either cell-permeable calcein AM and/or cell-impermeant ethidium homodimer according to the manufacturer's protocol (Live/dead cytotoxicity kit for mammalian cells, Invitrogen and reference). Data were collected in BDFacs Canto and analyzed using FACSDiva software (Becton-Dickenson).

caspase-3 in PC3 cells = experiment: Caspase-3 assay (Ac-DEVD-AFC cleavage); format: cell-based; conditions: PC3, 50–200 µM, 12–48 h
Protocol: 400,000 PC3 cells were plated in a 6-well plate (BD Falcon) at a concentration of 200,000 cells/ml and were allowed to attach overnight at 37°C with 5% CO2 and treated with 50–200 µM wrwycr for 12, 24 or 48 h. The wrwycr-treated cell lysates were incubated with Ac-DEVD (Asp-Glu-Val-Asp)-AFC, a caspase-3 substrate, for 1 h. Activated caspase-3 will cleave between the DEVD and AFC, releasing latter, a fluorogenic compound that can be excited at 400 nm and the resulting emission can be read at 505 nm by the Spectra Max Gemini XS fluorometer plate reader using Softmax Pro version 3.1.2 software. The total protein concentration was calculated for each sample by using BioRad protein assay kit. To normalize the fluorescence reading (RFU) for each sample, the reading for each sample was divided by the corresponding protein concentration of the samples.

PC3 cells = experiment: TUNEL assay, PC3; format: cell-based; conditions: PC3, 150 µM, 48 h
Protocol: 600,000 PC3 cells or 500,000 HeLa cells were plated in 60-mm dishes or 6-well plates respectively to allow them to attach overnight at 37°C with 5% CO2. PC3 cells were subsequently treated with appropriate treatments for 24, 36 and 48 h while HeLa cells were treated with 1 µl of either the caspase inhibitor z-VAD-fmk or z-FA-fmk (both from Biovision), containing appropriate treatments, for 24 h. The cells were fixed with 4% paraformaldehyde for 30 min and permeabilized with 0.1% Triton X-100 in 0.1% sodium citrate buffer for 3 mins. Labeled dUTP were added along with the terminal deoxynucleotidyl transferase dUTP nick end labeling (TUNEL) (TUNEL kit from Roche) as described in the kit. Samples were analyzed using a Becton Dickinson FACS Canto flow cytometer as specified above.

γH2AX in PC3 cells = experiment: γH2AX foci by microscopy and flow cytometry; format: cell-based; conditions: PC3, 200 µM, flow cytometry
Protocol: DAPI (5 μg/ml) was used to stain the nucleus. The stained cells on the coverslips were mounted on the glass slides and observed with a Zeiss inverted microscope with AxioVision 4.8 software and using the 100× magnification. Foci of 53BP1 were counted manually and the average number of foci per cell was calculated. […] They were subsequently treated with either 50-200 μM […] or 50-100 μM […] or 0.5-1 μM doxorubicin or combination treatment for 0, 12, 24, 36 and 48 h. […] Samples were analyzed using a Becton Dickinson FACS Canto flow cytometer at a forward scatter voltage of 25 V, side-scatter voltage of 400 V, and FITC channel at a voltage of 400 V.

53BP1 in PC3 cells = experiment: 53BP1 foci by fluorescence microscopy; format: cell-based; conditions: PC3, 48 h
Protocol: 200,000 PC3 cells were plated on cover-slips (Fisherbrand) mounted on each well of the 12-well dishes and allowed to attach overnight at 37°C incubator with 5% CO2. The cells were treated with 50, 100, 150, or 200 µM of wrwycr, or 1, 5, 10, 25, or 50 µM of wrwyrggrywrw for 48 h. […] The samples were probed with 1∶500 diluted mouse anti-γH2AX antibody (Millipore) or 1∶1000 diluted rabbit anti-53BP1 (Novus-Biologicals) with overnight incubation followed by Dylight anti-mouse or anti-rabbit secondary antibodies (Biolegend) respectively. DAPI (5 µg/ml) was used to stain the nucleus. The stained cells on the coverslips were mounted on the glass slides and observed with a Zeiss inverted microscope with AxioVision 4.8 software and using the 100× magnification. Foci of 53BP1 were counted manually and the average number of foci per cell was calculated.

[1] = tested on: U2OS cell lines vs IMR 90 cells; conditions: cited from earlier work
Excerpt: A major challenge of cancer treatment is drug delivery. The intact cell membrane protects the cellular components from its surroundings, restricting hydrophilic molecules from entering the cell and allowing only small molecules to cross the membrane. The presence of hydrophobic and basic amino acid residues in peptide wrwycr probably helps it cross the cancer cell membrane more efficiently than normal cells, similar to the cell penetrating peptides (CPPs).

[2] = tested on: Holliday junctions vs replication forks; conditions: in vitro; ref [20], [22], [26]; cited from earlier work
Excerpt: Our laboratory previously identified peptides and small molecules that bind to Holliday junctions and replication fork mimics, branched DNA structures that are intermediates in DNA repair [18]–[23]. […] In addition to binding HJs in vitro, peptide wrwycr also binds Holliday junctions in vivo [24] and is synergistically toxic with DNA-damaging agents including mitomycin C, UV, H2O2, and topoisomerase inhibitors in bacteria ([25]; Naili, ...

Structure (SMILES): N=C(N)NCCC[C@@H](NC(=O)[C@@H](CSSC[C@@H](NC(=O)[C@@H](Cc1ccc(O)cc1)NC(=O)[C@@H](Cc1c[nH]c2ccccc12)NC(=O)[C@@H](CCCNC(=N)N)NC(=O)[C@H](N)Cc1c[nH]c2ccccc12)C(=O)N[C@H](CCCNC(=N)N)C(N)=O)NC(=O)[C@@H](Cc1ccc(O)cc1)NC(=O)[C@@H](Cc1c[nH]c2ccccc12)NC(=O)[C@@H](CCCNC(=N)N)NC(=O)[C@H](N)Cc1c[nH]c2ccccc12)C(N)=O [wrwycr, Trp-Arg-Trp-Tyr-Cys-Arg] (I: H-[dW][dR][dW][dY][dC][dR]-NH2 / II: H-[dW][dR][dW][dY][dC][dR]-NH2; disulfide I:5-II:5; N-terminus assumed)
- pIC50 (LnCAP cells): 3.82 to 4.00
- Hela population % Dead (HeLa cells; 100 µM wrwycr): 5.4±2.0%
- Hela population %Live (HeLa cells; 100 µM wrwycr): 90.4±2.3%
- Hela population % Dead (HeLa cells; 150 µM wrwycr): 7.8±2.7%
- Hela population %Live (HeLa cells; 150 µM wrwycr): 86.3±2.5%
- Hela population % Dead (HeLa cells; 200 µM wrwycr): 12.7±6.0%
- Hela population %Live (HeLa cells; 200 µM wrwycr): 79% and 79.3±4.5%
- caspase-3 activation compared to DMSO control (caspase-3 in PC3 cells): no significant activation of caspase-3
- TUNEL positive cell population (PC3 cells): 65%
- γH2AX positive cells (γH2AX in PC3 cells; after 36–48 h): 20–35%
- γH2AX positive cells (γH2AX in PC3 cells; between 12–24 h): 2–5%
- accumulation of 53BP1 foci (53BP1 in PC3 cells): accumulation of 53BP1 protein in a dose-dependent manner
- uptake in U2OS cell lines relative to non-tumor derived IMR 90 cells [1]: 3 ×
- higher affinity for HJs than replication forks [2]: 2–5 fold
